Broadly, the pIC50 is −log10 of the IC50, conventionally taken in molar units. Lower therefore signals a high IC50. In general, inhibition refers to the percentage by which the read-out fell short of the control. Read a low inhibition as a response near the control.

Consider 47 compounds from patent publication US20190185479A1, “BICYCLIC NITROGENATED HETEROCYCLIC COMPOUND” (MITSUBISHI TANABE PHARMA CORPORATION, priority 2016, published 2019).

pIC50: −log10 of the molar value.

One assay deals with T1, Human PDE7B (hPDE7B) (Homo sapiens, UniProt Q9NP56).
T1 construct: made in house; host or cells: COS-7 cells
T1 sequence (Q9NP56 whole entry): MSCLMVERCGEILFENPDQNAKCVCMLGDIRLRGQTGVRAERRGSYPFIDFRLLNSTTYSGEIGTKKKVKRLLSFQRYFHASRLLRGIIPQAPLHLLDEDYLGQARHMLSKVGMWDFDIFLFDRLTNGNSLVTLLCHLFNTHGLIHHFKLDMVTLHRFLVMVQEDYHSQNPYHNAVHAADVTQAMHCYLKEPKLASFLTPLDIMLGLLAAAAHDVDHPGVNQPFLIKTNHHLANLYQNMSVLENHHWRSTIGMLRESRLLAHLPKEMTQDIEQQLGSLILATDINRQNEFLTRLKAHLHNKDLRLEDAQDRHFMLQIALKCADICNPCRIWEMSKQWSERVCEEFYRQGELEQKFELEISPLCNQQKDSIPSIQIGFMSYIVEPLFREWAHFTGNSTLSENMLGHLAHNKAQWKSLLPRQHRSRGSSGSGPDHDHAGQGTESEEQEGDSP
Description: Measurement of PDE7 inhibitory activity (Experimental Example 1; residual cAMP, LANCE Ultra cAMP TR-FRET). Format: biochemical. The conditions noted are these: cAMP 3 nmol/L, room temperature 60 minutes. The method, then:
Human PDE7B (hPDE7B) was isolated from COS-7 cells transfected with plasmids encoding hPDE7B according to the method described in a reference, Biochemical and Biophysical Research Communication, 271, p. 575-583 (2000). The resulting enzyme solution was used in the PDE assay.
PDE7 inhibitory assay was carried out by reacting the mixture of a compound, hPDE7B, and cAMP, and measuring the residual cAMP by a detection method using LANCE (registered trademark) Ultra cAMP Detection Kit (ParkinElmer). The compound was dissolved in DMSO, and diluted so that the concentration would become 50 times of the final concentration. The hPDE7B and cAMP were diluted with an assay buffer (50 mmol/L Tris-HCl, 1 mmol/L MgCl2, 0.1% BSA, 0.5 mmol/L DTT, pH7.5) so that the hPDE7B would have an appropriate enzyme activity and the concentration of cAMP would become 6 nmol/L. To a 96 well plate were added the compound (2 μL) (DMSO final concentration: 2%), hPDE7B (48 μL), and cAMP (50 μL) (concentration at the reaction: 3 nmol/L), and the resulting mixture was reacted at room temperature for 60 minutes. The reaction solution (20 μL) was subjected to a TR-FRET method according to the protocol specified by the kit to measure the concentration of the residual cAMP. In the assay, to a tracer solution specified by the kit was added 0.5 mmol/L of 3-isobutyl-1-methylxanthine (IBMX, nonselective PDE inhibitor) in order to stop the PDE enzyme reaction after the completion of reaction until the measurement.
The reaction without a compound was defined as “0% inhibition”, the reaction without hPDE7B was defined as “100% inhibition”, and the inhibition rate of the compound was calculated by the following equation.
Inhibition rate of compound (%)={(Residual cAMP concentration at the addition of compound−Residual cAMP concentration in 0% inhibition)/(Residual cAMP concentration in 100% inhibition−Residual cAMP concentration in 0% inhibition)}×100
On to `CC1CC(c2nnc3c(N)nccn23)CC(F)(F)C1` (single isomer, unassigned) [Example 217, 3-(trans-3,3-difluoro-5-methylcyclohexyl[1,2,4]triazolo[4,3-a]pyrazin-8-amine], for which the pIC50 was 7.00.

In turn, `C[C@H]1CCC[C@H](c2nnc3c(N)nccn23)C1` (racemic) [Example 143, 3-(trans-3-methylcyclohexyl) [1,2,4]triazolo[4,3-a]pyrazin-8-amine] showed a negative logarithm of the IC50 (pIC50) of 7.30.

Turning to `CC1CCC(C)(C)CN1c1nnc2c(N)nccn12` (single isomer, unassigned) [Example 237, 3-(2,5,5-trimethylpiperidin-1-yl) [1,2,4]triazolo[4,3-a]pyrazin-8-amine], the pIC50 is 8.55.

Take `COC1CCCC(n2nnc3c(N)ncnc32)C1` (stereo not drawn) [Example 123]: the pIC50 is 6.38.

For the compound `CC1CCC(C)N(c2nnc3c(N)ncc(C#N)n23)C1` (racemic) [Example 60, 8-amino-3-(2,5-dimethylpiperidin-1-yl) [1,2,4]triazolo[4,3-a]pyrazine-5-carbonitrile], the negative logarithm of the IC50 (pIC50) was greater than 8.00.

`Nc1nccn2c(N3CCCC(C(F)(F)F)C3)nnc12` (single isomer, unassigned) [Example 224] gave a pIC50 of 6.77.

In turn, `Nc1ncnc2c1nnn2[C@@H]1CCCN(c2ccccc2)C1` [Example 136, 3-[(3R)-1-phenylpiperidin-3-yl]-3H-[1,2,3]triazolo[4,5-d]pyrimidin-7-amine] had a pIC50 of 6.17.

Regarding `Nc1nccn2c(-c3ccccc3)nnc12` [Example 170], the negative logarithm of the IC50 (pIC50) was 6.57.

The compound `Nc1nccn2c(N3CCC4(CC3)CC4)nnc12` [Example 78] showed a pIC50 of 6.85.

Consider `C[C@H]1CCC[C@H](C)N1c1nnc2c(N)nccn12` [Example 64], for which the pIC50 was 6.97.

For `Nc1ncnc2c1nnn2-c1cccc(OCc2ccccc2)c1` [Example 139, 3-[3-(benzyloxy)phenyl]-3H-[1,2,3]triazolo[4,5-d]pyrimidin-7-amine], the pIC50 was 7.05.

`Cc1ccc(F)c(-n2nnc3c(N)ncnc32)c1` [Example 129] gave a pIC50 of 6.12.

In the case of `Nc1ncnc2c1nnn2C1CCCC(C(F)F)C1` (stereo not drawn) [Example 119], the pIC50 is 7.70.

Turning to `CCC1CCCCN1c1nnc2c(N)nccn12` (racemic) [Example 23, 3-(2-ethylpiperidin-1-yl) [1,2,4]triazolo[4,3-a]pyrazin-8-amine], the pIC50 is 7.40.

Turning to `Nc1ncnc2c1nnn2[C@H]1CC[C@H](C(F)(F)F)CC1` [Example 103], the negative logarithm of the IC50 (pIC50) was 6.35.

The compound `C=C1CC(c2nnc3c(N)nccn23)C1` [Example 19, 3-(3-methylenecyclobutyl)-[1,2,4]triazolo[4,3-a]pyrazin-8-amine] gave a pIC50 of 6.62.

Turning to `Nc1nccn2c(C3CCc4ccccc4C3)nnc12` (racemic) [Example 77, 3-(1,2,3,4-tetrahydronaphthalen-2-yl)-[1,2,4]triazolo[4,3-a]pyrazin-8-amine], the negative logarithm of the IC50 (pIC50) is 6.51.

Take `Nc1nccn2c(C3CCCCN3c3ncccn3)nnc12` (racemic) [Example 250, 3-(1-(pyrimidin-2-yl)piperidin-2-yl)-[1,2,4]triazolo[4,3-a]pyrazin-8-amine]: the pIC50 is 6.74.

In turn, `C[C@H]1CCCCN1c1nnc2c(N)nccn12` [Example 21, 3-(2-methylpiperidin-1-yl) [1,2,4]triazolo[4,3-a]pyrazin-8-amine] gave a pIC50 of 7.05.

In turn, `CC1CCCCC1n1nnc2c(N)ncnc21` (racemic) [Example 1, 3-(trans-2-methylcyclohexyl)-3H-[1,2,3]triazolo[4,5-d]pyrimidin-7-amine] showed a negative-log IC50 (pIC50) of 7.10.

As for `Nc1nccn2c(C3CCC4CC4C3)nnc12` (stereo not drawn) [Example 158, 3-(bicyclo[4.1.0]hept-3-yl) [1,2,4]triazolo[4,3-a]pyrazin-8-amine], the negative logarithm of the IC50 (pIC50) is 7.15.

As for `CC1CCC(C)N(c2nnc3c(N)nccn23)C1` (single isomer, unassigned) [Example 233, 3-(2,5-dimethylpiperidin-1-yl) [1,2,4]triazolo[4,3-a]pyrazin-8-amine], the pIC50 was 7.00.

In turn, `Nc1ncnc2c1nnn2[C@@H]1CCCC(F)(F)C1` [Example 88] showed a negative-log IC50 (pIC50) of 6.08.

`Nc1ncnc2c1nnn2[C@H]1CC[C@@H](C(F)(F)F)CC1` [Example 102] showed a pIC50 of 6.60.

The compound `Nc1nccn2c(C3CCCC4(CC4)C3)nnc12` (racemic) [Example 145, 3-(spiro[2,5]oct-5-yl) [1,2,4]triazolo[4,3-a]pyrazin-8-amine] had a negative-log IC50 (pIC50) of 7.52.

On to `C=C(C)[C@H]1CC[C@H](C)C(n2nnc3c(N)ncnc32)C1` (stereo in doubt) [Example 107, 3-[(1R,2S,5S)-2-methyl-5-(prop-1-en-2-yl)cyclohexyl]-3H-[1,2,3]triazolo[4,5-d]pyrimidin-7-amine], for which the pIC50 was less than 6.00.

The compound `Nc1nccn2c(N3C[C@H]4C[C@H]4C3)nnc12` [Example 31] gave a negative-log IC50 (pIC50) of 6.32.

Take `CC1CCCC(n2nnc3c(N)ncnc32)C1` (single isomer, unassigned) [Example 198, 3-(trans-3-methylcyclohexyl)-3H-[1,2,3]triazolo[4,5-d]pyrimidin-7-amine]: the negative logarithm of the IC50 (pIC50) was 7.15.

`CC1(C)CCCC(c2nnc3c(N)ncnn23)C1` (single isomer, unassigned) [Example 243, 3-(3,3-dimethylcyclohexyl) [1,2,4]triazolo[3,4-f][1,2,4]triazin-8-amine]: the pIC50 is 6.92.

In the case of `CC1CCCCC1c1nnc2c(N)ncnn12` (single isomer, unassigned) [Example 239, 3-(cis-2-methylcyclohexyl) [1,2,4]triazolo[3,4-f][1,2,4]triazin-8-amine], the pIC50 is 6.96.

For `Nc1nccn2c(C3CCC(F)(F)CC3)nnc12` [Example 150], the pIC50 is 6.89.

Take `Nc1nccn2c(N3C4CCC3CC4)nnc12` [Example 66]: the negative logarithm of the IC50 (pIC50) was 6.44.

The compound `Nc1nccn2c([C@@H]3CCCC(F)(F)C3)nnc12` [Example 213, 3-(3,3-difluorocyclohexyl) [1,2,4]triazolo[4,3-a]pyrazin-8-amine] gave a negative-log IC50 (pIC50) of 6.48.

Take `CC1CCCC(n2nnc3c(N)ncnc32)C1` (single isomer, unassigned) [Example 197, 3-(cis-3-methylcyclohexyl)-3H-[1,2,3]triazolo[4,5-d]pyrimidin-7-amine]: the negative-log IC50 (pIC50) was 6.47.

`Nc1ncnc2c1nnn2C1CCCC(CO)C1` (stereo not drawn) [Example 124] had a negative-log IC50 (pIC50) of 6.59.

Turning to `Nc1nccn2c(CC3CCCCC3)nnc12` [Example 165], the negative logarithm of the IC50 (pIC50) is 6.44.

`Nc1ncnc2c1nnn2-c1cccc(C(=O)NCc2ccccc2)c1` [Example 131] showed a negative-log IC50 (pIC50) of 6.60.

In turn, `Nc1nccn2c([C@@H]3C[C@@H]4CC[C@H]3C4)nnc12` [Example 162] had a pIC50 of 6.77.

On to `Nc1ncnn2c(C3CCCC(C(F)(F)F)C3)nnc12` (single isomer, unassigned) [Example 74, 3-[cis-3-(trifluoromethyl)cyclohexyl][1,2,4]triazolo[3,4-f][1,2,4]triazin-8-amine], for which the negative logarithm of the IC50 (pIC50) is greater than 8.00.

`CC(C)(C)OC(=O)N1CCCC(n2nnc3c(N)ncnc32)C1` (stereo not drawn) [Example 11] had a negative-log IC50 (pIC50) of 6.40.

Regarding `COC1CCCCC1n1nnc2c(N)ncnc21` (stereo not drawn) [Example 116], the negative-log IC50 (pIC50) was 6.42.

Regarding `C[C@@H](c1ccc(F)cc1)n1nnc2c(N)ncnc21` [Example 16], the pIC50 was 6.46.

As to `CC1CCC(F)(F)CC1c1nnc2c(N)ncnn12` (single isomer, unassigned) [Example 247, 3-(cis-5,5-difluoro-2-methylcyclohexyl) [1,2,4]triazolo[3,4-f][1,2,4]triazin-8-amine], the negative logarithm of the IC50 (pIC50) was 6.20.

On to `Nc1ncnc2c1nnn2[C@H]1CCC[C@@H](C(F)(F)F)C1` (racemic) [Example 87, 3-[cis-3-(trifluoromethyl)cyclohexyl]-3H-[1,2,3]triazolo[4,5-d]pyrimidin-7-amine], for which the pIC50 is 7.52.

In turn, `Nc1nccn2c(C3CCC4CC4C3)nnc12` (single isomer, unassigned) [Example 220, 3-(bicyclo[4.1.0]hept-3-yl) [1,2,4]triazolo[4,3-a]pyrazin-8-amine] showed a negative-log IC50 (pIC50) of 6.96.

The compound `CC1CCC(C)(C)CN1c1nnc2c(N)nccn12` (racemic) [Example 65, 3-(2,5,5-trimethylpiperidin-1-yl) [1,2,4]triazolo[4,3-a]pyrazin-8-amine] showed a negative-log IC50 (pIC50) greater than 8.00.

`CC1CC(C)CN(c2nnc3c(N)nccn23)C1` (single isomer, unassigned) [Example 227, 3-[trans-3,5-dimethylpiperidin-1-yl][1,2,4]triazolo[4,3-a]pyrazin-8-amine] gave a pIC50 of 6.72.

The assay is the same for the next values; noted with them: compound at 1 μmol/L.
`C=C(C)[C@H]1CC[C@H](C)C(n2nnc3c(N)ncnc32)C1` (stereo in doubt) [Example 107, 3-[(1R,2S,5S)-2-methyl-5-(prop-1-en-2-yl)cyclohexyl]-3H-[1,2,3]triazolo[4,5-d]pyrimidin-7-amine] gave an inhibition at 1 µM of 35%.
